This note sets out measurements from patent publication US20230174523A1, “BENZENESULFONAMIDE DERIVATIVES AS TRAP1 MODULATORS AND USES THEREOF” (Amathus Therapeutics, Inc., priority 2020, published 2023).

The experiment addresses T1, nanoLuc TRAP1 (Homo sapiens, UniProt Q12931).
T1 construct: expressed in transfected cells; host or cells: SHSY5Y cells, transient transfection with FuGENE HD
T1 sequence (Q12931 60-704): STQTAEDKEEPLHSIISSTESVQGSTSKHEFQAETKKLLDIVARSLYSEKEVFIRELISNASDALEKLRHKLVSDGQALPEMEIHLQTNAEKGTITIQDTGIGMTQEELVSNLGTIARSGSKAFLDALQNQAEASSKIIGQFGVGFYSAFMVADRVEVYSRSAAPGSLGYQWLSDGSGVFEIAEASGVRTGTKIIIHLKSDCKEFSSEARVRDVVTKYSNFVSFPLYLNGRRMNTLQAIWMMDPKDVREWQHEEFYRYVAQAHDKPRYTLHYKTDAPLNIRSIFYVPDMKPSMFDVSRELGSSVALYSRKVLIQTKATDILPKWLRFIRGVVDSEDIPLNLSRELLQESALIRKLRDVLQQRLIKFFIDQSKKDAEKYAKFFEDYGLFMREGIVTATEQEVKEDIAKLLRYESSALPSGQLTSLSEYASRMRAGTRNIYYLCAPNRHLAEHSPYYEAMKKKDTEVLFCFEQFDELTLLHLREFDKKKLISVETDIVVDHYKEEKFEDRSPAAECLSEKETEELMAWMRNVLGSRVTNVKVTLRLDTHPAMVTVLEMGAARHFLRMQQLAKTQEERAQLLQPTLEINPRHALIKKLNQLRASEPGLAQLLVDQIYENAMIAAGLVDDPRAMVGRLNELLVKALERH
The experiment in a line: In-cell target engagement assay (NanoBRET) in SHSY5Y cells. Format: cell-based. As to conditions: tracer probe-385, 1 μM; live SHSY5Y cells; FIG. 4. How it is done: In-cell target engagement assays were performed as described in Robers M. B. et al. (2019) Quantitative, Real-Time Measurements of Intracellular Target Engagement Using Energy Transfer. In: Ziegler S., Waldmann H. (eds) Systems Chemical Biology. Methods in Molecular Biology, vol 1888. Humana Press, New York, N.Y.; Machleidt et al., ACS Chem. Biol. 2015, 10, 8, 1797-1804; or Vasta et al., Cell Chemical Biology 25, 206-214, Feb. 15, 2018; or as described herein.
Below is a protocol for transient transfection of SHSY5Y cells with NanoLuc® fusions. • 1. Cultivate SHSY5Y cells appropriately prior to assay in MEM w NEAA supplemented with 10% FBS. • 2. Remove medium from cell flask via aspiration, trypsinize, and allow cells to dissociate from the flask. • 3. Neutralize trypsin using growth medium and pellet cells via centrifugation at 200 g for 5 minutes. • 4. Aspirate medium and re-suspend cells into a single cell suspension using complete cell culture medium. • 5. Adjust the cell density to 300K/mL in cell culture medium in a sterile, conical tube. • 6. Prepare lipid:DNA complexes as follows (this covers two assay plates, adjust numbers for more plates) • a. Prepare a 10 μg/mL solution of DNA in Opti-MEM without serum. This solution should contain the following ratios of carrier DNA and DNA encoding NanoLuc® fusion. • i. 5.0 μg/mL of Transfection Carrier DNA (pGEM) • ii. […]

As to `Cc1nn(C)c2sc(C(=O)Nc3ccc(F)c(S(=O)(=O)Nc4ccc(Cl)cc4)c3)cc12` [Compound 705], the “displacement of the nanoBRET tracer molecule from nanoLuc TRAP1” value is reported as “displacing the nanoBRET tracer molecule”.
